In US6737383B1, “Herbicidal oxadiazolidines” (priority 1999, dated 2004):

Tests used:
crabgrass = assay: Test B pre/postemergence crabgrass; type: in vivo, Digitaria sanguinalis
In short: (§1)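 Response is a visual 0-to-10 score relative to untreated plants, where 0 means no effect and 10 means complete control, taken twelve to sixteen days after application. Treatments went onto soil at planting and onto foliage of 1- to 4-leaf plants, using a surfactant-containing non-phytotoxic solvent.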

purple nutsedge = assay: Test B pre/postemergence purple nutsedge; type: in vivo, Cyperus rotundus; conditions: for Plant response rating, Nutsedge: scale of 0 to 10 where 0 is no effect and 10 is complete control
In short: as §1

velvetleaf = assay: Test B pre/postemergence velvetleaf; type: in vivo, Abutilon theophrasti; conditions: for Plant response rating, Velvetleaf: scale of 0 to 10 where 0 is no effect and 10 is complete control
In short: as §1

corn = assay: Test B pre/postemergence corn; type: in vivo, Zea mays
In short: as §1

cocklebur = assay: Test B pre/postemergence cocklebur; type: in vivo, Xanthium strumarium
In short: as §1

giant foxtail = assay: Test B pre/postemergence giant foxtail; type: in vivo, Setaria faberii
In short: as §1

bedstraw = assay: Test B pre/postemergence bedstraw; type: in vivo, Galium aparine; conditions: Postemergence
In short: as §1

morningglory = assay: Test B pre/postemergence morningglory; type: in vivo, Ipomoea hederacea; conditions: for Plant response rating, Morningglory: scale of 0 to 10 where 0 is no effect and 10 is complete control
In short: as §1

wheat = assay: Test B pre/postemergence wheat; type: in vivo, Triticum aestivum; conditions: for Plant response rating, Wheat: scale of 0 to 10 where 0 is no effect and 10 is complete control
In short: as §1

rape = assay: Test B pre/postemergence rape; type: in vivo, Brassica napus; conditions: for Plant response rating, Rape: scale of 0 to 10 where 0 is no effect and 10 is complete control
In short: as §1

pigweed = assay: Test B pre/postemergence pigweed; type: in vivo, Amaranthus retroflexus; conditions: for Plant response rating, Redroot pigweed: scale of 0 to 10 where 0 is no effect and 10 is complete control
In short: as §1

blackgrass = assay: Test B pre/postemergence blackgrass; type: in vivo, Alopecurus myosuroides
In short: as §1

wild oat = assay: Test B pre/postemergence wild oat; type: in vivo, Avena fatua; conditions: for Plant response rating, Wild oats: scale of 0 to 10 where 0 is no effect and 10 is complete control
In short: as §1

soybean = assay: Test B pre/postemergence soybean; type: in vivo, Glycine max; conditions: for Plant response rating, Soybean: scale of 0 to 10 where 0 is no effect and 10 is complete control
In short: as §1

surinam grass = assay: Test B pre/postemergence surinam grass; type: in vivo, Brachiaria decumbens
In short: as §1

[1] = Postemergence, Rate 250 g/ha, scale 0 to 10
[2] = Postemergence, Rate 500 g/ha, scale of 0 to 10 where 0 is no effect and 10 is complete control
[3] = Preemergence, Rate 62 g/ha, scale of 0 to 10 where 0 is no effect and 10 is complete control
[4] = Preemergence, Rate 125 g/ha, scale of 0 to 10 where 0 is no effect and 10 is complete control
[5] = Preemergence, Rate 250 g/ha, scale 0 to 10, 0 is no effect, 10 is complete control
[6] = Preemergence, Rate 500 g/ha, scale 0 to 10, 0 is no effect, 10 is complete control
[7] = Rate 62 g/ha, Postemergence, scale 0 to 10 (0 no effect, 10 complete control)
[8] = Rate 125 g/ha, Postemergence, scale 0 to 10, 0 is no effect, 10 is complete control

CC(C)N(C(=O)n1oc(=O)n(CO)c1=O)c1ccc(F)cc1 [Compound 470]
Crabgrass plant response rating (crabgrass; [1]): 0
Crabgrass plant response rating (crabgrass; [2]): 0
Plant response rating, Crabgrass (crabgrass; [3]): 1
Plant response rating, Crabgrass (crabgrass; [4]): 7
Crabgrass plant response rating (crabgrass; [5]): 8
Crabgrass plant response rating (crabgrass; [6]): 9
Crabgrass plant response rating (crabgrass; [7]): 0
Crabgrass plant response rating (crabgrass; [8]): 0
Nutsedge plant response rating (purple nutsedge; [1]): 0
Plant response rating, Nutsedge (purple nutsedge; Preemergence, Rate 62 g/ha): 0
Plant response rating, Nutsedge (purple nutsedge; Preemergence, Rate 125 g/ha): 0
Nutsedge plant response rating (purple nutsedge; [5]): 0
Nutsedge plant response rating (purple nutsedge; [6]): 0
Nutsedge plant response rating (purple nutsedge; [7]): 0
Nutsedge plant response rating (purple nutsedge; [8]): 0
Velvetleaf plant response rating (velvetleaf; [1]): 0
Plant response rating, Velvetleaf (velvetleaf; Preemergence, Rate 62 g/ha): 0
Plant response rating, Velvetleaf (velvetleaf; Preemergence, Rate 125 g/ha): 0
Velvetleaf plant response rating (velvetleaf; [5]): 0
Velvetleaf plant response rating (velvetleaf; [6]): 0
Velvetleaf plant response rating (velvetleaf; [7]): 0
Velvetleaf plant response rating (velvetleaf; [8]): 0
Corn plant response rating (corn; [1]): 0
Corn plant response rating (corn; [2]): 0
Plant response rating, Corn (corn; [3]): 0
Plant response rating, Corn (corn; [4]): 0
Corn plant response rating (corn; [5]): 0
Corn plant response rating (corn; [6]): 0
Corn plant response rating (corn; [7]): 0
Corn plant response rating (corn; [8]): 0
Cocklebur plant response rating (cocklebur; [1]): 0
Cocklebur plant response rating (cocklebur; [2]): 0
Plant response rating, Cocklebur (cocklebur; [3]): 0
Plant response rating, Cocklebur (cocklebur; [4]): 0
Cocklebur plant response rating (cocklebur; [5]): 0
Cocklebur plant response rating (cocklebur; [6]): 0
Cocklebur plant response rating (cocklebur; [7]): 0
Cocklebur plant response rating (cocklebur; [8]): 0
Giant foxtail plant response rating (giant foxtail; [1]): 0
Giant foxtail plant response rating (giant foxtail; [2]): 0
Plant response rating, Giant foxtail (giant foxtail; [3]): 0
Plant response rating, Giant foxtail (giant foxtail; [4]): 0
Giant foxtail plant response rating (giant foxtail; [5]): 0
Giant foxtail plant response rating (giant foxtail; [6]): 3
Giant foxtail plant response rating (giant foxtail; [7]): 0
Giant foxtail plant response rating (giant foxtail; [8]): 0
Bedstraw plant response rating (bedstraw; Rate 62 g/ha, scale 0 to 10 (0 no effect, 10 complete control)): 0
Bedstraw plant response rating (bedstraw; Rate 125 g/ha, scale 0 to 10, 0 is no effect, 10 is complete control): 0
Morningglory plant response rating (morningglory; [1]): 0
Plant response rating, Morningglory (morningglory; Preemergence, Rate 62 g/ha): 0
Plant response rating, Morningglory (morningglory; Preemergence, Rate 125 g/ha): 0
Morningglory plant response rating (morningglory; [5]): 0
Morningglory plant response rating (morningglory; [6]): 0
Morningglory plant response rating (morningglory; [7]): 0
Morningglory plant response rating (morningglory; [8]): 0
Wheat plant response rating (wheat; [1]): 0
Plant response rating, Wheat (wheat; Preemergence, Rate 62 g/ha): 0
Plant response rating, Wheat (wheat; Preemergence, Rate 125 g/ha): 0
Wheat plant response rating (wheat; [5]): 0
Wheat plant response rating (wheat; [6]): 0
Wheat plant response rating (wheat; [7]): 0
Wheat plant response rating (wheat; [8]): 0
Rape plant response rating (rape; [1]): 0
Plant response rating, Rape (rape; Preemergence, Rate 62 g/ha): 0
Plant response rating, Rape (rape; Preemergence, Rate 125 g/ha): 0
Rape plant response rating (rape; [5]): 0
Rape plant response rating (rape; [6]): 0
Rape plant response rating (rape; [7]): 0
Rape plant response rating (rape; [8]): 0
Redroot pigweed plant response rating (pigweed; [1]): 0
Plant response rating, Redroot pigweed (pigweed; Preemergence, Rate 62 g/ha): 0
Plant response rating, Redroot pigweed (pigweed; Preemergence, Rate 125 g/ha): 0
Redroot pigweed plant response rating (pigweed; [5]): 0
Redroot pigweed plant response rating (pigweed; [6]): 0
Redroot pigweed plant response rating (pigweed; [7]): 0
Redroot pigweed plant response rating (pigweed; [8]): 0
Blackgrass plant response rating (blackgrass; [1]): 0
Blackgrass plant response rating (blackgrass; [2]): 0
Plant response rating, Blackgrass (blackgrass; [3]): 0
Plant response rating, Blackgrass (blackgrass; [4]): 0
Blackgrass plant response rating (blackgrass; [5]): 7
Blackgrass plant response rating (blackgrass; [7]): 0
Blackgrass plant response rating (blackgrass; [8]): 0
Wild oats plant response rating (wild oat; [1]): 0
Plant response rating, Wild oats (wild oat; Preemergence, Rate 62 g/ha): 0
Plant response rating, Wild oats (wild oat; Preemergence, Rate 125 g/ha): 0
Wild oats plant response rating (wild oat; [5]): 0
Wild oats plant response rating (wild oat; [6]): 3
Wild oats plant response rating (wild oat; [7]): 0
Wild oats plant response rating (wild oat; [8]): 0
Soybean plant response rating (soybean; [1]): 1
Plant response rating, Soybean (soybean; Preemergence, Rate 62 g/ha): 0
Plant response rating, Soybean (soybean; Preemergence, Rate 125 g/ha): 0
Soybean plant response rating (soybean; [5]): 0
Soybean plant response rating (soybean; [6]): 0
Soybean plant response rating (soybean; [7]): 0
Soybean plant response rating (soybean; [8]): 0
B. signalgrass plant response rating (surinam grass; Postemergence, Rate 250 g/ha, scale 0 to 10, 0 no effect, 10 complete control): 0
B. signalgrass plant response rating (surinam grass; [2]): 0
Plant response rating, B. signalgrass (surinam grass; [3]): 0
Plant response rating, B. signalgrass (surinam grass; [4]): 0
B. signalgrass plant response rating (surinam grass; [5]): 4
B. signalgrass plant response rating (surinam grass; [6]): 6
B. signalgrass plant response rating (surinam grass; [7]): 0
B. signalgrass plant response rating (surinam grass; [8]): 0
